# Laboratory results reported in US20220213030A1, “AMINOGUANIDINE HYDRAZONES AS RETROMER STABILIZERS USEFUL FOR TREATING NEUROLOGICAL DISEASES” (OSPEDALE SAN RAFFAELE SRL, priority 2019, published 2022).
# Assays:
# [1] = tested on: Neuro2a cells transfected with G93A plasmids; assay: Cell survival (CCK8) of Neuro2a transfected with G93A plasmids; assay type: cell-based, mouse; conditions: 10 μM
# Excerpt: Pathological alteration of the Golgi apparatus, such as its fragmentation, has been described in many neurodegenerative disorders including ALS. Neuro2a cells transfected with plasmids encoding the G93A mutant form of the SOD1 show alteration of the Golgi transport (Soo, Halloran et al. 2015). Along the same lines, Golgi fragmentation precedes neuromuscular denervation and axon retraction in ALS mice (van Dis, Kuijpers et al. 2014). We transfected Neuro2a cells with plasmids encoding the G93A mutant form of the human SOD1 gene (hereafter G93A) in presence or in absence of compound 2a (10 μM). Cells were harvested after 48 hours, labelled for Golgin-97 and scored for the distribution of trans-Golgi. […] Of note, the fragmentation of Golgi in cells receiving G93A plasmids was not depending on Golgin97 expression levels (FIG. 3A). We speculated that Golgi fragmentation may exacerbate cell death in this cell line. Therefore, we assayed cell survival of Neuro2a transfected with G93A plasmids. Accordingly, cells were transfected with G93A plasmids or with a control plasmid encoding the LacZ. […] Rates of cell survival were similar among controls—i.e. cells receiving LacZ plasmids or compound 2a—when compared with untreated cells. On the other hand, the over-expression of G93A plasmids affected Neuro2a cell survival. […]
# Cathepsin D (CTSD) = assay: Cathepsin D expression and maturation in G93A mice; assay type: in vivo, mouse; conditions: 10 mg/kg, day 100
# Excerpt: We next investigated Cathepsin D (CTSD) expression and distribution in G93A mice, since it is known that the trafficking of this lysosomal enzyme involves the retromer complex (Seaman 2004). In humans, maturation of CTSD starts with a pre-pro-CTSD that is converted to pro-CTSD (52 kDa) in the endoplasmic reticulum. Recycling of pro-CTSD, and its downstream migration to acidic compartments involves CI-MPR and the retromer pathway. In late endosomes, pro-CTSD is further processed to an intermediate form (48 kDa), and finally converted to mature CTSD (34 kDa) in lysosomes (Laurent-Matha 2006). The inactivation of VPS35 or the knockdown of VPS26 affect the maturation of CTSD. We scored CTSD levels in equal amounts of lumbar SC extracts obtained from vehicle-treated WT, G93A mice receiving the vehicle, and G93A treated with lead 2a. […] We next analyzed CTSD levels in MNs by confocal microscopy. We observed a significant reduction of this protease in MNs of vehicle-treated G93A, while such levels increased in G93A mice treated with compound 2a (FIG. 11F). Similarly, numbers of CTSD^+ puncta in lumbar NeuN^+ MNs were reduced in vehicle-treated G93A MNs, while they increased in compound 2a-treated mice (FIG. 11F).
# Fluorescence intensity levels of VPS35, VPS26, Sortilin, CTSD and Ubiquitin were calculated using NHI-Image J software (US National Institutes of Health) according to the following protocol: stacks of confocal images were used to generate the maximal projections (Las-X) and then post-processed by NHI-Image J to crop single NeuN^+ MNs from the ventral horn of the spinal cord. We next performed background (calculated on adjacent slices only receiving secondary antibodies) subtraction for each channel, before applying the NHI-Image J mean filter (with radius 2.0 pixels) to calculate mean NeuN fluorescence levels in individual MN. Using this approach, we established a region of interest (ROI) that gated single MN. On this selected ROI, we calculated mean fluoresce levels (MFI) of each protein.
# [2] = Brain uptake of compound 2a in C57BL6J mice (LC-MS/MS); assay type: in vivo; conditions: 10 mg/Kg/day intraperitoneal; 1, 7, 15 and 30 days; saline perfused
# Protocol: We run a pharmacokinetic assay on C57BL6J mice that received daily intraperitoneal injections of compound 2a (10 mg/Kg/day). Mice were sacrificed after 1, 7, 15 and 30 days saline perfused to avoid the CNS contamination of compounds contained in blood circulation and brains used for the determination of compound 2a levels by mass spectrometry.
# Healthy mice were daily injected with vehicle or compound 2a (10 mg/kg) and sacrificed after 1, 7, 15 and 30 days. Upon saline perfusion, brains were dissociated from skulls, carefully weighted and rapidly stored in dry ice. Then, brains (˜400 mg) were checked for the presence of Compound 2a. […] After the extraction, each biological sample was re-suspended in 60 μl of LC/MS grade water and 5 μl analyzed by LC-MS/MS using the UPLC 1290 (Agilent Technologies) coupled to the TripleTOF 5600+ mass spectrometer (SCIEX) in positive mode. A Waters ACQUITY UPLC BEH HILIC column (2.1×10 mm, 1.7 μm) was used for the chromatographic separation through a gradient of solvent A (ACN+0.1% FA) and solvent B (H2O+0.1% FA). Calibration curves were constructed by plotting the peak area versus the corresponding concentrations using MultiQuant 2.1 software (SCIEX).
smiles,measurement,setting,value
"N=C(N)NN=Cc1cccc(C=NNC(=N)N)c1 [Compound 2a, 1,3-Bis-amino guanidine phenyl hydrazone]",cell survival of G93A-transfected cells,[1],significantly reverted this phenotype
same,cell survival of cells transfected with G93A and Sh56 (VPS35 RNAi) plasmids,[1]; VPS35 knock down,substantially affected the capability of compound 2a to revert this phenotype
same,CTSD levels in MNs (confocal MFI),Cathepsin D (CTSD),increased
same,"levels of mature CTSD (WB, lumbar SC extracts)",Cathepsin D (CTSD),significantly increased
same,numbers of CTSD+ puncta in lumbar NeuN+ MNs,Cathepsin D (CTSD),increased
same,compound levels in the brain (ability to access the CNS),[2],significant amounts of compound 2a in the brain
